In brackets after ≈: the same amount, converted by molar mass.
The compounds below were run on HCT-116 (assay: Cytotoxicity against human HCT116 cells).
Type: functional, cell-based

| Structure (SMILES) | IC50 [µg/mL] |
| --- | --- |
| COC1=C(Br)C[C@]2(OC=C1Br)ON=C(C(=O)NCCCOc1c(Br)cc(C(O)CN)cc1Br)[C@@H]2O (stereo partly drawn) [PSAMMAPLYSIN B] | 6 (≈ 8.01 µM) |
| CNCC(O)c1cc(Br)c(OCCCNC(=O)C2=NO[C@@]3(CC(Br)=C(OC)C(Br)=CO3)[C@H]2O)c(Br)c1 (stereo partly drawn) [PSAMMAPLYSIN C] | 3 (≈ 3.93 µM) |
| COC1=C(Br)C[C@]2(OC=C1Br)ON=C(C(=O)NCCCOc1c(Br)cc(CCN)cc1Br)[C@@H]2O [PSAMMAPLYSIN A] | 6 (≈ 8.19 µM) |
